# Measurements from patent US8158851B2, “Transgenic high tryptophan plants” (Monsanto Technology LLC, priority 2002, dated 2012).
# B1: Ruta graveolens anthranilate synthase α-subunit: Ruta graveolens anthranilate synthase α-subunit isoenzyme, Genbank GI 960291 (protein, listed as Ruta graveolens)
# chain: MSAAATSMQSLKFSNRLVPPSRRLSPVPNNVTCNNLPKSAAPVRTVKCCASSWNSTINGAAATTNGASAASNGASTTTTTYVSDATRFIDSSKRANLVPLYRCIFADHLTPVLAYRCLVQEDDKETPSFLFESVEPGRISTVGRYSVVGAHPVMEVIAKDNMVTVMDHEKGSLVEEVVDDPMEIPRRISEDWKPQIIDDLPEAFCGGWVGFFSYDTVRYVEKKKLPFSKAPQDDRNLADMHLGLYNDVIVFDHVEKKVYVIHWVRLNQQSSEEKAYAEGLEHLERLVSRVQDENTPRLAPGSIDLHTGHFGPPLKKSNMTCEEYKMAVLAAKEHIQAGDIFQIVLSQRFERRTFADPFEVYRALRVVNPSPYMTYMQARGCVLVASSPEILTRVKKNKIVNRPLAGTARRGRTTEEDEMLETQLLKDAKQCAEHVMLVDLGRNDVGKVSKSGSVKVEKLMNVERYSHVMHISSTVTGELQDNLSCWDALRAALPVGTVSGAPKVKAMELIDELEVNRRGPYSGGFGGISFTGDMDIALALRTIVFQTGTRYDTMYSYKNATKRRQWVAYLQAGAGIVADSDPDDEHRECQNKAAGLARAIDLAESAFVNKSSS
# How the values were obtained:
# [1] = target: T1, Rhizobium meliloti anthranilate synthase, monomeric (SEQ ID NO: 7) (Rhizobium meliloti, UniProt P15395); assay: Activity assay of crude cell extract by HPLC; format: biochemical; settings: BL-21 cells with pMON66596, HPLC, read-out: ICso (trp)
# T1 construct: made in house; host or cells: E. coli BL-21, plasmid pMON66596 (pSE280)
# T1 sequence (P15395 1-729): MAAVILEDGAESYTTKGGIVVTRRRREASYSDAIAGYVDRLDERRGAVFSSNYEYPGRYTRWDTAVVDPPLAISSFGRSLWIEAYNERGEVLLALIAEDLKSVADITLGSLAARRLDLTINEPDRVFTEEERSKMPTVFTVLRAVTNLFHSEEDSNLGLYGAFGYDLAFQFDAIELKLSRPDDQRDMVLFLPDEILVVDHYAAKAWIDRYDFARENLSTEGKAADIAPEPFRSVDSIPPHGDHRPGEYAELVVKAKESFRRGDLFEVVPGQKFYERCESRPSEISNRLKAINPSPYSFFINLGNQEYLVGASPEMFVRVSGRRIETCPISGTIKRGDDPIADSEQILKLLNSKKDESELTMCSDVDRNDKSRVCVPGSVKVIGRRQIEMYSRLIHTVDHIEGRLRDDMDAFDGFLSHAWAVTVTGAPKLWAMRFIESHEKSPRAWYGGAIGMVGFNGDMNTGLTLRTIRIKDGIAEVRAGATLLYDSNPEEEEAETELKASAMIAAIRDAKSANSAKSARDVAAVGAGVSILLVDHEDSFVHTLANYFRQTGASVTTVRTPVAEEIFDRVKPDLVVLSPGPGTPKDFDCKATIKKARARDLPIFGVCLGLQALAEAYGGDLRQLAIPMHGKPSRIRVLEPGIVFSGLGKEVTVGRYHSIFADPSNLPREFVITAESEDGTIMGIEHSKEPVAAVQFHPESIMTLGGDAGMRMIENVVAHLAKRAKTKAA
# Source text: pMON66596 was transformed into BL-21 cells and induced with IPTG to express protein.
# [2] = tested on: Ruta graveolens anthranilate synthase; settings: Bohlmann et al. 1996; cited from earlier work
molecule,measurement,setting,value
"N[C@@H](Cc1c[nH]c2ccccc12)C(=O)O [tryptophan, L-tryptophan]",IC50,[1],~10 µM
B1,sensitivity to tryptophan inhibition,[2],less sensitive to tryptophan inhibition
